Measurements published in patent US20230234936A1, “COMPOUND FOR TARGETING AND DEGRADING PROTEIN, AND PREPARATION METHOD THEREFOR AND USE THEREOF” (SHANGHAI LEADINGTAC PHARMACEUTICAL CO., LTD., priority 2020, published 2023).

Biological target: T1, IRAK4 protein in THP-1 cells (Homo sapiens, UniProt Q9NWZ3)
T1 construct: endogenous in cells; host or cells: THP-1
T1 sequence (Q9NWZ3 1-460): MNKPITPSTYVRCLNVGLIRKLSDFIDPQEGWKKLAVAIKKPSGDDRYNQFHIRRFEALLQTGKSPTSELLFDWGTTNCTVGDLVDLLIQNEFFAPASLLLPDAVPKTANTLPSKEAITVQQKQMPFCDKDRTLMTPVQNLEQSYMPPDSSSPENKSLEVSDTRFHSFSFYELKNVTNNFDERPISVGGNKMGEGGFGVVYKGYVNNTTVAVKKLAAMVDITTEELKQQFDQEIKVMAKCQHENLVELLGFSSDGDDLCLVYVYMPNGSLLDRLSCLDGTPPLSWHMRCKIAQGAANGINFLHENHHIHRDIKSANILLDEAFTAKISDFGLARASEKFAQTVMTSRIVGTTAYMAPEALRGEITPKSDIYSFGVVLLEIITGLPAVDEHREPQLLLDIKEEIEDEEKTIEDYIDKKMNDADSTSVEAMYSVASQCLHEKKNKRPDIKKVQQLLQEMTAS
Assay: Degradation of IRAK4 in THP-1 cells (Western blot)
Format: cell-based
Conditions: 24 hours, compound 1-3000 nM
Description: Each well of the 24-well cell culture plate was inoculated with 0.95 mL THP-1 cells (stem cell bank of Chinese academy of sciences) with a cell density of 5×10^5 cells/well. The cell plate was placed in a 5% carbon dioxide incubator and cultured overnight at 37° C., then 50 μL compound in dimethyl sulfoxide was added. The final concentration of the compound was in the range of 1-3000 nM. After continuous cultivation for 24 hours, the cells were collected into a 1.5 mL centrifuge tube, centrifuged at 1000 rpm and 4° C. for 5 minutes. Cell precipitation was cleaned twice with 1-DPBS, resuspended cells were lysed with 200 μL lysate (cell lysate was Western and IP cell lysate (Beyotime), supplemented with 1 mM mixture of phenylmethylsulfonyl fluoride and protease inhibitor (Beyotime)), left on ice for 30 minutes, then centrifuged at 14000 g at 4° C. for 10 minutes, and the supernatant was taken to detect IRAK4 protein level by Western blot.
Western blot method: The total protein concentration in the supernatant of cell lysis was determined by BCA protein quantitative kit (Tiangen). According to the concentration of total protein detected by BCA, the supernatant was adjusted to 0.2 μg/μL with PBS and 5× SDS-PAGE protein loading buffer (Beyotime), bathed in water at 100° C. for 10 minutes, then placed in ice bath for 5 minutes, centrifuged at 14000 g and 4° C. for 5 minutes, and then collected as WB loading sample. Prefabricated glue (KeyGEN) was used for protein electrophoresis with a loading amount of 10 μL (total protein 2 μg). After Tris-MOPS-SDS electrophoresis solution (Adamas), 120V constant pressure electrophoresis was performed. After electrophoresis, the protein on the adhesive strip was transferred to PVDF membrane with a constant current of […] for 50 minutes. After the membrane was transferred, the membrane was placed in 1×QuickBlock blocking buffer (Beyotime) and incubated for 30 minutes at room temperature. After blocking, PVDF membranes were incubated with IRAK4 primary antibody (Abcam) overnight at 4°, the membranes were washed with TBST buffer (2.4 g Tris, 8.8 g NaCl, 1.5 mL Tween 20, pH adjusted to 7.4, constant volume to 1 L) for 30 minutes, incubated with secondary antibody (Abcam) for 2 hours at room temperature, finally incubated with Clarity Western ECL Substrate(BIO-RAD) for 5 minutes for luminescence development, chemiluminescence imaging system (Clinx, chemiScope 6200 Touch) for development and protein mapping photography. The protein map was analyzed by Clinx chemiluminescence analysis software for grayscale values. Using the formula: grayscale correction value=(target protein grayscale value/corresponding internal reference grayscale value)×10^3, the grayscale correction value of each sample was calculated. The degradation rate was calculated by comparing with the grayscale correction value of the control group. Furthermore, DC50 and Dmax values of the compound were obtained by the nonlinear curve fitting with the logarithmic concentration-inhibition rate by GraphPad Prism 7.

| DC50 [nM] | SMILES |
| --- | --- |
| 38.1 | COc1cc2nn(C3CCN(CCOCCOc4ccc5c(c4)C(=O)N(C4CCC(=O)NC4=O)C5=O)CC3)cc2cc1NC(=O)c1cccc(C(F)(F)F)n1 (centres unmarked) [Control group 1, N-(2-(1-(2-(2-((2-(2,6-dioxopiperidin-3-yl)-1,3-dioxoisoindol-5-yl)oxy)ethoxy)ethyl)piperidin-4-yl)-6-methoxy-2H-indazol-5-yl)-6-(trifluoromethyl) pyridinecarboxamide, reference compound] |

Biological target: T2, IRAK4 kinase (Homo sapiens, UniProt Q9NWZ3)
T2 sequence (Q9NWZ3 1-460): T1 sequence (Q9NWZ3 1-460)
Assay: IRAK4 kinase activity test (KinEASE-STK S1 HTRF kit)
Format: biochemical
Conditions: 2.5 nM kinase, 1 μM biotinylated polypeptide substrate, 7 μM ATP, 37° C. 120 min
Description: KinEASE-STK S1 serine/threonine kinase kit (Cisbio) was used to detect the inhibitory effect of the compound on IRAK4 kinase activity. The specific method was: the compound was dissolved in dimethyl sulfoxide, and then it was diluted with the buffer solution of the kit by equal gradient to make the final concentration range of the tested compound in the reaction system 10000 nM-0.038 nM, then 2.5 nM kinase, 1 μM biotinylated polypeptide substrate and 7 μM adenosine triphosphate (ATP) were added in sequence and incubated at 37° C. for 120 min. Subsequently, anti-phosphorylated serine/threonine antibody coupled with europium element compound and modified XL665 streptavidin were added to the reaction system to terminate the reaction. After incubating at room temperature for 1 h, the fluorescence intensity of each well at the emission wavelength of 620 nm and 665 nm and the excitation wavelength of 337 nm was determined in HTRF mode on the microplate reader EnVision(PerkinElmer), the ratio value was calculated using the formula Ratio=(665 nm/620 nm)×10^4. By comparing with the fluorescence intensity ratio of the control group, the inhibition rate of the compound at each concentration was calculated, and then the IC50 value of the compound was obtained by fitting the nonlinear curve with the logarithmic concentration-inhibition rate by GraphPad Prism 7.

| IC50 [nM] | SMILES |
| --- | --- |
| 44.2 | COc1cc2nn(C3CCN(CCOCCOc4ccc5c(c4)C(=O)N(C4CCC(=O)NC4=O)C5=O)CC3)cc2cc1NC(=O)c1cccc(C(F)(F)F)n1 (centres unmarked) [Control group 1, N-(2-(1-(2-(2-((2-(2,6-dioxopiperidin-3-yl)-1,3-dioxoisoindol-5-yl)oxy)ethoxy)ethyl)piperidin-4-yl)-6-methoxy-2H-indazol-5-yl)-6-(trifluoromethyl) pyridinecarboxamide, reference compound] |
| 12.2 | COc1cc2nn(C3CCN(CCCCCNC(=O)c4ccc(OC)c(N5CCC(=O)NC5=O)c4)CC3)cc2cc1NC(=O)c1cccc(C(F)(F)F)n1 [Example 4, N-(2-(1-(5-(3-(2,4-dioxotetrahydropyrimidin-1 (2H)-yl)-4-methoxybenzamido)pentyl)piperidin-4-yl)-6-methoxy-2H-indazol-5-yl)-6-(trifluoromethyl) pyridinecarboxamide] |
| 9.1 | COc1cc2nn(C3CCN(CCOCCNC(=O)c4ccc(OC)c(N5CCC(=O)NC5=O)c4)CC3)cc2cc1NC(=O)c1cccc(C(F)(F)F)n1 [Example 5, N-(2-(1-(2-(2-(3-(2,4-dioxotetrahydropyrim-idin-1 (2H)-yl)-4-methoxybenz-amido)ethoxy)ethyl)piperidin-4-yl)-6-me-thoxy-2H-indazol-5-yl)-6-(trifluoromethyl) pyridinecarboxamide] |
| 10.5 | COc1cc2nn(C3CCN(CCOCCOCCNC(=O)c4ccc(OC)c(N5CCC(=O)NC5=O)c4)CC3)cc2cc1NC(=O)c1cccc(C(F)(F)F)n1 [Example 8, N-(2-(1-(2-(2-(2-(3-(2,4-dioxotetrahydropyrimidin-1 (2H)-yl)-4-methoxybenz-amido)ethoxy)ethoxy)ethyl)piperidin-4-yl)-6-methoxy-2H-indazol-5-yl)-6-(trifluoro-methyl) pyridin-carboxamide] |
| 7.9 | COc1ccc(C(=O)N2CC3(CCN(CCN4CCC(n5cc6cc(NC(=O)c7cccc(C(F)(F)F)n7)c(C(C)(C)O)cc6n5)CC4)CC3)C2)cc1N1CCC(=O)NC1=O [Example 13, N-(2-(1-(2-(2-(3-(2,4-dioxotetrahydropyrimidin-1 (2H)-yl)-4-methoxybenzoyl)-2,7-diazaspiro [3.5]non-7-yl)ethyl)piperidin-4-yl)-6-(2-hydroxyprop-2-yl)-2H-indazol-5-yl)-6-(trifluoro-methyl) pyridinecarboxamide] |
| 6.9 | COc1cc2nn(C3CCN(CCN4CCN(C(=O)c5ccc(OC)c(N6CCC(=O)NC6=O)c5)CC4)CC3)cc2cc1NC(=O)c1cccc(C(F)(F)F)n1 [Example 14, N-(2-(1-(2-(4-(3-(2,4-dioxotetrahydropyrimidin-1 (2H)-yl)-4-methoxybenzoyl)piperazin-1-yl)ethyl)piperidin-4-yl)-6-methoxy-2H-indazol-5-yl)-6-(trifluoromethyl) pyridinecarboxamide] |
| 6 | COc1cc2nn(C3CCN(CCN4CC5(CCN(C(=O)c6ccc(OC)c(N7CCC(=O)NC7=O)c6)CC5)C4)CC3)cc2cc1NC(=O)c1cccc(C(F)(F)F)n1 [Example 15, N-(2-(1-(2-(7-(3-(2,4-dioxo-tetrahydropyrim-idin-1 (2H)-yl)-4-methoxy-benzoyl)-2,7-diazaspiro [3.5]non-2-yl)ethyl)piperidin-4-yl)-6-methoxy-2H-in-dazol-5-yl)-6-(tri-fluoromethyl) pyridinecarbox-amide] |
| 34.6 | CCOc1ccc(C(=O)N2CCC3(CCC(CCN4CCC(n5cc6cc(NC(=O)c7cccc(C(F)(F)F)n7)c(C(C)(C)O)cc6n5)CC4)CC3)CC2)cc1N1CCC(=O)NC1=O [Example 24] |
| 8.6 | CC(C)(O)c1cc2nn(C3CCN(CCCC4CCN(C(=O)c5ccc(Cl)c(N6CCC(=O)NC6=O)c5)CC4)CC3)cc2cc1NC(=O)c1cccc(C(F)(F)F)n1 [Example 29] |
| 30.5 | CC(C)(O)c1cc2nn(C3CCN(CCC4CCC5(CC4)CCN(C(=O)c4ccc(OC(F)(F)F)c(N6CCC(=O)NC6=O)c4)CC5)CC3)cc2cc1NC(=O)c1cccc(C(F)(F)F)n1 [Example 37] |
| 34.5 | CC(C)(O)c1cc2nn(C3CCN(CCC4CCC5(CC4)CCN(C(=O)c4ccc(C(F)(F)F)c(N6CCC(=O)NC6=O)c4)CC5)CC3)cc2cc1NC(=O)c1cccc(C(F)(F)F)n1 [Example 38, N-(2-(1-(2-(3-(3-(2,4-dioxotetrahydro-pyrimidin-1 (2H)-yl)-4-(trifluoro-methyl)benzoyl)-3-azaspiro[5.5]undec-9-yl)ethyl)piperidin-4-yl)-6-(2-hydroxyprop-2-yl)-2H-indazol-5-yl)-6-(trifluoro-methyl) pyridinecarbox-amide] |
| 9.2 | COc1cc2nn([C@H]3CC[C@H](CN(C)CCC4CCN(C(=O)c5ccc(F)c(C6CCC(=O)NC6=O)c5)CC4)CC3)cc2cc1NC(=O)c1cccc(C(F)(F)F)n1 (some centres unmarked) [Example 52] |
| 3.8 | COc1cc2nn(C3CCC4(CC3)CCN(CC3CCN(C(=O)c5ccc(Cl)c(N6CCC(=O)NC6=O)c5)CC3)CC4)cc2cc1NC(=O)c1cccc(C(F)(F)F)n1 [Example 57, N-(2-(3-((1-(4-chloro-3-(2,4-dioxotetrahydro-pyrimidin-1 (2H)-yl)benzoyl)piperidin-4-yl)methyl)-3-azaspiro [5.5]undec-9-yl)-6-methoxy-2H-inda-zol-5-yl)-6-(triflu-oromethyl) pyridinecarbox-amide] |
| 11 | COc1cc2nn([C@H]3CC[C@@H](N4CCC5(CCN(C(=O)c6ccc(Cl)c(N7CCC(=O)NC7=O)c6)CC5)CC4)CC3)cc2cc1NC(=O)c1cccc(C(F)(F)F)n1 [Example 59, N-(2-((1s,4s)-4-(9-(4-chloro-3-(2,4-dioxotetrahydro-pyrimidin-1 (2H)-yl)benzoyl)-3,9-diazaspiro[5.5]undec-3-yl)cyclohexyl)-6-methoxy-2H-inda-zol-5-yl)-6-(trifluoro-methyl) pyridinecarbox-amide] |
| 128 | O=C1CCN(c2cc(C(=O)N3CCC4(CCC(CN5CCC(n6cc7cc(NC(=O)c8cccc(C(F)(F)F)n8)c(OC(F)(F)F)cc7n6)CC5)CC4)CC3)ccc2Cl)C(=O)N1 [Example 61, N-(2-(1-((3-(4-chloro-3-(2,4-dioxotetrahydro-pyrimidin-1 (2H)-yl)benzoyl)-3-azaspiro [5.5]undec-9-yl)methyl)piperidin-4-yl)-6-(trifluoromethoxy)-2H-indazol-5-yl)-6-(trifluoro-methyl) pyridinecarbox-amide] |
| 4.4 | CN(C[C@H]1CC[C@H](n2cc3cc(NC(=O)c4cccc(C(F)(F)F)n4)c(C(C)(C)O)cc3n2)CC1)C1CCC2(CC1)CCN(C(=O)c1ccc(Cl)c(N3CCC(=O)NC3=O)c1)CC2 [Example 63] |
